Values of other authors, collected in US20020177579A1, “Extended release formulation of water-soluble drugs” (priority 2000, published 2002).
Counter-ions that a name gives are not always drawn.

How the values were obtained:
[1] = for Fraction Absorbed: in vivo

SMILES	Fraction Absorbed [1]	Solubility (in words)	further results
CCOC(=O)[C@H](CCc1ccccc1)N[C@H]1CCc2ccccc2N(CC(=O)O)C1=O.Cl [Benazepril HCI]	37%		Solubility: >100 mg/mL
COc1ccc([C@@H]2Sc3ccccc3N(CCN(C)C)C(=O)[C@@H]2OC(C)=O)cc1 [Diltiazem hydrochloride, 1,5-benzothiazepin-4 (5H) one, 3-(acetyloxy)-5-[2-(dimethylamino)ethyl]-2,3-dihydro-2-(4-methoxyphenyl)-, monohydrochloride, (+)-cis-4]			solubility in 100% ethanol (100% ethanol): slightly soluble; solubility in benzene (benzene): not soluble; solubility in chloroform (chloroform): freely soluble; solubility in methanol (methanol): freely soluble; solubility in water (water): freely soluble; absolute bioavailability ([1]; compared to intravenous administration): about 40%
CCC(=O)O[C@@H](O[P@](=O)(CCCCc1ccccc1)CC(=O)N1C[C@H](C2CCCCC2)C[C@H]1C(=O)O)C(C)C [Fosinopril Sodium]	36%		Solubility: 100 mg/mL
CN1C2CCCC1CC(NC(=O)c1nn(C)c3ccccc13)C2 (centres unmarked) [Granisetron HCI]	˜90%	“Readily	
COCCc1ccc(OCC(O)CNC(C)C)cc1 (centres unmarked) [Metoprolol Succinate]		“Freely	
CCOC(=O)[C@H](CCc1ccccc1)N[C@@H](C)C(=O)N1Cc2ccccc2C[C@H]1C(=O)O [Quinapril HCI]	60%	“Freely	
CNS(=O)(=O)Cc1ccc2[nH]cc(CCN(C)C)c2c1 [Sumatriptan Succinate]	15%	“Readily	
